System: 616215-338-R-J1-PDC complex spheroid viability
Assay: Anticancer human tumor 616215-338-R-J1-PDC patient-derived colon adenocarcinoma cell line growth inhibition [RAS]
Conditions: for viability, T/C: stronger effect = lower value
Method in brief: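 Tumour cells grown as complex spheroids with HUVEC endothelial cells and mesenchymal stem cells, treated with RAS pathway inhibitor combinations. Each agent spans half-log steps from near clinical Cmax, or 10 microM where Cmax is unknown.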

[1] = curve of first compound, second compound 0.000949 µM
[2] = curve of first compound, second compound 0.003 µM
[3] = curve of first compound, second compound 0.00949 µM
[4] = curve of first compound, second compound 0.03 µM
[5] = curve of first compound, second compound 0.0949 µM
[6] = curve of first compound, second compound 0.3 µM
[7] = second compound 0.000949 µM, first compound 0.000316 µM
[8] = second compound 0.000949 µM, first compound 0.001 µM
[9] = second compound 0.000949 µM, first compound 0.00316 µM
[10] = second compound 0.000949 µM, first compound 0.01 µM
[11] = second compound 0.000949 µM, first compound 0.0316 µM
[12] = second compound 0.000949 µM, first compound 0.1 µM
[13] = second compound 0.003 µM, first compound 0.000316 µM
[14] = second compound 0.003 µM, first compound 0.001 µM
[15] = second compound 0.003 µM, first compound 0.00316 µM
[16] = second compound 0.003 µM, first compound 0.01 µM
[17] = second compound 0.003 µM, first compound 0.0316 µM
[18] = second compound 0.003 µM, first compound 0.1 µM
[19] = second compound 0.00949 µM, first compound 0.000316 µM
[20] = second compound 0.00949 µM, first compound 0.001 µM
[21] = second compound 0.00949 µM, first compound 0.00316 µM
[22] = second compound 0.00949 µM, first compound 0.01 µM
[23] = second compound 0.00949 µM, first compound 0.0316 µM
[24] = second compound 0.00949 µM, first compound 0.1 µM
[25] = second compound 0.03 µM, first compound 0.000316 µM
[26] = second compound 0.03 µM, first compound 0.001 µM
[27] = second compound 0.03 µM, first compound 0.00316 µM
[28] = second compound 0.03 µM, first compound 0.01 µM
[29] = second compound 0.03 µM, first compound 0.0316 µM
[30] = second compound 0.03 µM, first compound 0.1 µM
[31] = second compound 0.0949 µM, first compound 0.000316 µM
[32] = second compound 0.0949 µM, first compound 0.001 µM
[33] = second compound 0.0949 µM, first compound 0.00316 µM
[34] = second compound 0.0949 µM, first compound 0.01 µM
[35] = second compound 0.0949 µM, first compound 0.0316 µM
[36] = second compound 0.0949 µM, first compound 0.1 µM
[37] = second compound 0.3 µM, first compound 0.000316 µM
[38] = second compound 0.3 µM, first compound 0.001 µM
[39] = second compound 0.3 µM, first compound 0.00316 µM
[40] = second compound 0.3 µM, first compound 0.01 µM
[41] = second compound 0.3 µM, first compound 0.0316 µM
[42] = second compound 0.3 µM, first compound 0.1 µM
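Also: spheroids exposed to agents for seven days before viability readout.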
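For viability, T/C in this document: 100% = DMSO vehicle control viability.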

With `CC(C)n1nc(-c2ccc3oc(N)nc3c2)c2c(N)ncnc21` + CCn1c(-c2cccnc2C(C)OC)c2c3cc(ccc31)N1CCOC(CC(NC(=O)C(C(C)C)N(C)C(=O)C3(F)CCN(C(=O)C#CC(C)(C)N(C)C)CC3)C(=O)N3CCCC(N3)C(=O)OCC(C)(C)C2)C1 the IC50 [1] was > 100 nM, the IC50 [2] was > 100 nM and the IC50 [3] was > 100 nM. The IC50 [4] was > 100 nM, the IC50 [5] was > 100 nM and the IC50 [6] was 66.2 nM. For the same compound, the viability, T/C [7] was 95.6%, the viability, T/C [8] was 97.1% and the viability, T/C [9] was 108%. For the same compound, the viability, T/C [10] was 96.9%, the viability, T/C [11] was 112% and the viability, T/C [12] was 72.2%. For the same compound, the viability, T/C [13] was 102%, the viability, T/C [14] was 98.9% and the viability, T/C [15] was 97.8%. It also gave a viability, T/C [16] of 105%, a viability, T/C [17] of 116% and a viability, T/C [18] of 74.1%. For the same compound, the viability, T/C [19] was 100%, the viability, T/C [20] was 90.7% and the viability, T/C [21] was 101%. The viability, T/C [22] was 111%, the viability, T/C [23] was 111% and the viability, T/C [24] was 66.6%. The viability, T/C [25] was 95.5%, the viability, T/C [26] was 96.1% and the viability, T/C [27] was 115%. It also gave a viability, T/C [28] of 106%, a viability, T/C [29] of 102% and a viability, T/C [30] of 64.1%. It also gave a viability, T/C [31] of 109%, a viability, T/C [32] of 109% and a viability, T/C [33] of 113%. The viability, T/C [34] was 110%, the viability, T/C [35] was 108% and the viability, T/C [36] was 55.8%. For the same compound, the viability, T/C [37] was 106%, the viability, T/C [38] was 106% and the viability, T/C [39] was 103%. It also gave a viability, T/C [40] of 82.1%, a viability, T/C [41] of 71.8% and a viability, T/C [42] of 38.9%.

`CC(C)n1nc(-c2ccc3oc(N)nc3c2)c2c(N)ncnc21` + CCn1c(-c2cc(N3CCN(C)CC3)cnc2C(C)OC)c2c3cc(ccc31)-c1csc(n1)CC(NC(=O)C1CC1C)C(=O)N1CCCC(N1)C(=O)OCC(C)(C)C2 was tested, and the IC50 [1] was > 100 nM, the IC50 [2] was 77.1 nM and the IC50 [3] was 42.8 nM. The IC50 [4] was < 0.316 nM, the IC50 [5] was < 0.316 nM and the IC50 [6] was < 0.316 nM. The viability, T/C [7] was 103%, the viability, T/C [8] was 93.7% and the viability, T/C [9] was 110%. It also gave a viability, T/C [10] of 116%, a viability, T/C [11] of 118% and a viability, T/C [12] of 63.8%. For the same compound, the viability, T/C [13] was 114%, the viability, T/C [14] was 108% and the viability, T/C [15] was 108%. It also gave a viability, T/C [16] of 103%, a viability, T/C [17] of 86.2% and a viability, T/C [18] of 39.2%. The viability, T/C [19] was 77.2%, the viability, T/C [20] was 71.4% and the viability, T/C [21] was 64.5%. For the same compound, the viability, T/C [22] was 78.8%, the viability, T/C [23] was 54.8% and the viability, T/C [24] was 36.4%. It also gave a viability, T/C [25] of 41%, a viability, T/C [26] of 51.2% and a viability, T/C [27] of 39.5%. For the same compound, the viability, T/C [28] was 37.3%, the viability, T/C [29] was 39% and the viability, T/C [30] was 25%. It also gave a viability, T/C [31] of 41%, a viability, T/C [32] of 39.3% and a viability, T/C [33] of 31.8%. It also gave a viability, T/C [34] of 30.9%, a viability, T/C [35] of 30.9% and a viability, T/C [36] of 21.3%. For the same compound, the viability, T/C [37] was 35.9%, the viability, T/C [38] was 31.1% and the viability, T/C [39] was 35.9%. For the same compound, the viability, T/C [40] was 30.1%, the viability, T/C [41] was 27.8% and the viability, T/C [42] was 22.8%.

With `C=CC(=O)N1CCN(c2nc(OCC3CCCN3C)nc3c(F)c(-c4nc(N)cc(C)c4C(F)(F)F)c(Cl)cc23)C(C)C1` (configuration not stated) the viability, T/C (compound 0.00316 µM) was 100% [middle of 12 runs], the viability, T/C (compound 0.01 µM) was 102% [middle of 12 runs] and the viability, T/C (compound 0.0316 µM) was 99.4% [middle of 12 runs]. For the same compound, the viability, T/C (compound 0.1 µM) was 102% [middle of 12 runs], the viability, T/C (compound 0.316 µM) was 104% [middle of 12 runs] and the viability, T/C (compound 1 µM) was 103% [middle of 12 runs]. For the same compound, the IC50 (compound alone, run of 06/10/2024) was > 1000 nM and the IC50 (curve of compound) was > 1000 nM.
